Experimental data published in ChEMBL document CHEMBL1134787, “Synthesis and biological studies of novel nucleoside phosphoramidate prodrugs” (J Med Chem, 2001).

Legend:
Thymidylate synthase [1] = molecular target: T1, Thymidylate synthase (Mus musculus, UniProt P07607); test: Thymidylate synthase inhibition in thymidine kinase deficient /TK cells after 2 hr treatment
L1210 [2] = test: Growth inhibition in L1210 mouse leukemia cells after 48 hr treatment; format: functional, cell-based; conditions: L1210, 48 h
L1210 [3] = test: Growth inhibition in L1210 mouse leukemia cells after 8 h treatment; format: functional, cell-based; conditions: L1210, 8 h
L1210 [4] = test: Growth inhibition in L1210 mouse leukemia cells after 24 h treatment; format: functional, cell-based; conditions: L1210, 24 h
Thymidylate synthase [5] = molecular target: T1, Thymidylate synthase; test: Thymidylate synthase inhibition in L1210 mouse leukemia cells after 2 hr treatment; format: cell-based
Thymidylate synthase [6] = molecular target: T1, Thymidylate synthase; test: Thymidylate synthase inhibition in wild type LM cells after 2 hr treatment; format: cell-based
L1210 [7] = test: Growth inhibition in L1210 mouse leukemia cells after 2 hr treatment; format: functional, cell-based; conditions: L1210, 2 h
Thymidylate synthase [8] = molecular target: T1, Thymidylate synthase; test: Thymidylate synthase inhibition in thymidine kinase deficient LM cells after 2 hr treatment; format: cell-based

T1 sequence (P07607 whole entry): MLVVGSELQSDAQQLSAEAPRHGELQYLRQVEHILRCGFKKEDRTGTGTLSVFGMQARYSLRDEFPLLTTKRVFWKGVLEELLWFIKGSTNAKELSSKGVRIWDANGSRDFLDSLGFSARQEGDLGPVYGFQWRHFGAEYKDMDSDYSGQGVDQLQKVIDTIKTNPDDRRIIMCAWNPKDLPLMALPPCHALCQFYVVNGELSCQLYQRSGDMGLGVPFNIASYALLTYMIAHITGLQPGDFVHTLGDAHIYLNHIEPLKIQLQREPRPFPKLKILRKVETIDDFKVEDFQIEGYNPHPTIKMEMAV

Compound | IC50 (Thymidylate synthase [1]) [nM] | IC50 (L1210 [2]) [nM] | IC50 (L1210 [3]) [nM] | IC50 (L1210 [4]) [nM] | IC50 (Thymidylate synthase [5]) [nM] | IC50 (Thymidylate synthase [6]) [nM] | IC50 (L1210 [7]) [nM] | IC50 (Thymidylate synthase [8]) [nM]
CN(CCCCCl)P(=O)(OCC1=CC(=O)c2ccccc2C1=O)OC[C@H]1O[C@@H](n2cc(F)c(=O)[nH]c2=O)C[C@@H]1O (some centres not stated) | 25 | 0.63 | 16 | 3.1 | 10 | 230 | 44 | 5900
CN(CCCCCl)P(=O)(OCc1ccc([N+](=O)[O-])o1)OC[C@H]1O[C@@H](n2cc(F)c(=O)[nH]c2=O)C[C@@H]1O (some centres not stated) | 1.9 | 2.3 | 47 | 7.2 | 65 | 560 | 116 | 1060
CN(CCBr)P(=O)(OCc1ccc([N+](=O)[O-])o1)OC[C@H]1O[C@@H](n2cc(F)c(=O)[nH]c2=O)C[C@@H]1O (some centres not stated) | – | 16 | 347 | 56 | – | – | 1030 | –
O=c1[nH]cc(F)c(=O)[nH]1 [FLUOROURACIL] | – | 200 | 1010 | 360 | – | – | 2500 | –
O=c1[nH]c(=O)n([C@H]2C[C@H](O)[C@@H](CO)O2)cc1F [FLOXURIDINE] | 20 | 0.64 | 23 | 4.1 | 7.9 | 260 | 45 | 5400
